Measurements as given in article PMC9924185, “A validated LC–MS/MS method for clinical pharmacokinetics and presumptive phase II metabolic pathways following oral administration of Andrographis paniculata extract” (Scientific Reports, 2023).
Read-outs that look alike come from different tables or passages of the source.

Experiments:
[1] = Clinical pharmacokinetics in plasma after single oral administration of A. paniculata extract; type: in vivo, human; details: for Cmax / AUC(0-t) / Vd/F / Tmax / half-life: human, parent compound in plasma, single oral dose of extract (60 mg andrographolide); for Cmax: healthy subjects n = 4; for Cmax / AUC(0-t) / Vd/F: mean ± SD; for AUC(0-t) / Vd/F / Tmax / half-life: n = 4; for Tmax / half-life: median
Protocol: (§1) An aliquot of 50 µL of plasma or urine was placed in a 1.5 mL of polypropylene centrifuge micro-tube. Protein was removed from the sample by adding 200 µL of methanol (containing 50.00 ng/mL of IS). The mixture was vortexed for 10 min and was then centrifuged at 12,000 rpm, 4 °C for 10 min. The supernatant was filtered through a […] PVDF membrane (Chrom Tech) and transferred into a glass insert in a vial before LC‑MS/MS analysis.
(§2) The clinical pharmacokinetic study was designed as an open-labeled, with a single oral dosing, and conducted under a fasting condition. Four healthy subjects were recruited according to the following inclusion criteria: 18—55 years old with a body mass index (BMI) of 18–30 kg/m^2. Study participants were identified as healthy based on laboratory testing and physical examinations. The participants received 3 capsules containing A. paniculata extract (calculated as 60 mg of andrographolide/dose) before breakfast with 240 mL of drinking water. Blood samples, in EDTA tubes, were taken after oral administration at 0, 10, 20, 30, 45 min, and 1, 1.5, 2, 4, 6, 8, 10, 12, 24 h post dose. All blood samples were then centrifuged at 4000 ± 100 rpm, 4 °C for 5 min. Plasma was pipetted and stored in cryotubes at − 80 °C until further analysis. Urine samples were collected during 0–4, 4–8, 8–12, 12–24, 24–32, 32–40 and 40–48 h after dosing and were then kept at − 80 °C before sample extraction.
Pharmacokinetic parameters were determined by non-compartmental analysis using PK solutions software, version 2.0 (Summit Research Services). The maximum concentration of four targeted compounds (Cmax) and the time to reach maximum concentration (Tmax) were taken directly from the individual plasma concentration versus time profiles. The area under the curve from time zero to the last sampling time (AUC0-t) was estimated using the linear trapezoidal rule. The apparent volume of distribution (Vd/F) and the elimination half-life (t1/2) were determined using non-compartmental analysis.
(§3) Finally, the hydrolysis of glucuronide metabolites in the pharmacokinetic study was performed according to the following process: 50 µL of plasma or urine sample was incubated for 30 min with 50 µL of 1000 U/mL β-glucuronidase in phosphate buffer pH 6.8 (composed of 0.1 M sodium phosphate monobasic and 0.1 M sodium phosphate dibasic) at 37 °C. For the hydrolysis of sulfatase, 50 µL of 100 units/mL of sulfatase in an acetate buffer at pH 5.0 (composed of 0.1 M acetic acid and 0.1 M sodium acetate) was added into 50 µL of sample; the mixture was then incubated at 37 °C for 2 h. The reaction was stopped in all hydrolysis samples with 150 µL of cold methanol, and then protein precipitation was performed prior to LC–MS/MS analysis. However, due to unavailable standard of the conjugated forms (AP-glucuronide and […]). The quantitative analysis of conjugated metabolites was determined after the hydrolysis reaction by enzymatic digestion, and the free form was analyzed without hydrolysis. The conjugated standards of AP-glucuronide or AP-sulfate should be synthesized for determining the exact amount of the glucuronide or sulfate.

[2] = Cumulative urine excretion after single oral administration of A. paniculata extract; type: in vivo, human
Protocol: as §1, §2, §3

[3] = Stability in urine under different storage conditions; type: physicochemical, human
Protocol: (§4) The stability of plasma and urine samples were evaluated at three different QC concentration levels (LQC, MQC and HQC, n = 3 for each level); the conditions were freeze–thaw stability, long-term stability, short-term stability, and post preparative stability in an autosampler. The evaluation of stability under freeze–thaw condition was carried out over five cycles of − 80 °C for at least 12 h of each cycle. Long-term stability was analyzed after storing the samples at − 80 °C. Short-term stability of each analyte, for up to 8 h during processing on the bench at room temperature, was also evaluated. For evaluation of post-preparative stability, the extracted samples were stored at ambient temperature (4 °C) in an autosampler for 24 h. The analyte was considered as a stable sample when the average percentage of accuracy of the QC sample was in the range of 85–115% and the %CV was not over 15%.

[4] = plasma
Protocol: as §4

[5] = Freeze–thaw stability 5 cycles, 2.50 ng/mL (LQC)
[6] = Freeze–thaw stability 5 cycles, 500.00 ng/mL (MQC)
[7] = Freeze–thaw stability 5 cycles, 900.00 ng/mL (HQC)
[8] = Long term stability 3 months at − 80 °C, 2.50 ng/mL (LQC)
[9] = Long term stability 3 months at − 80 °C, 500.00 ng/mL (MQC)
[10] = Long term stability 3 months at − 80 °C, 900.00 ng/mL (HQC)
[11] = Post preparative stability 24 h at autosampler, 2.50 ng/mL (LQC)
[12] = Post preparative stability 24 h at autosampler, 500.00 ng/mL (MQC)
[13] = Post preparative stability 24 h at autosampler, 900.00 ng/mL (HQC)
[14] = Short term stability 8 h at room temperature, 2.50 ng/mL (LQC)
[15] = Short term stability 8 h at room temperature, 500.00 ng/mL (MQC)
[16] = Short term stability 8 h at room temperature, 900.00 ng/mL (HQC)

C=C1CC[C@@H]2[C@](C)(CO[C@@H]3O[C@H](CO)[C@@H](O)[C@H](O)[C@H]3O)CCC[C@@]2(C)[C@@H]1CCC1=CCOC1=O [AP4, neoandrographolide]
Cmax [1]: 22.4 ± 5.87 ng/mL
AUC(0-t) [1]: 44.1 ± 7.48 ng·h/mL
Vd/F [1]: 0.65 ± 0.13 L/kg
Tmax [1]: 90 min
half-life [1]: 13.2 min
Amount detected in plasma ([1]; parent compound, single oral dose of extract): only very small amounts
Conjugated metabolites in plasma ([1]; single oral dose of extract): negligible
Conjugated metabolites in the urine [2]: negligible
Route of excretion [2]: primarily excreted renally
%Accuracy [3, 5]: 93.80%
Measured concentration [3, 5]: 2.35 ± 0.08 ng/mL
%Accuracy [3, 6]: 92.94%
Measured concentration [3, 6]: 464.68 ± 10.80 ng/mL
%Accuracy [3, 7]: 101.12%
Measured concentration [3, 7]: 910.07 ± 23.86 ng/mL
%Accuracy [3, 8]: 93.48%
Measured concentration [3, 8]: 2.34 ± 0.16 ng/mL
%Accuracy [3, 9]: 89.13%
Measured concentration [3, 9]: 445.65 ± 10.92 ng/mL
%Accuracy [3, 10]: 94.77%
Measured concentration [3, 10]: 852.94 ± 7.53 ng/mL
%Accuracy [3, 11]: 96.03%
Measured concentration [3, 11]: 2.40 ± 0.15 ng/mL
%Accuracy [3, 12]: 89.94%
Measured concentration [3, 12]: 449.68 ± 2.36 ng/mL
%Accuracy [3, 13]: 101.81%
Measured concentration [3, 13]: 916.25 ± 29.10 ng/mL
%Accuracy [3, 14]: 97.15%
Measured concentration [3, 14]: 2.43 ± 0.07 ng/mL
Measured concentration [3, 15]: 461.15 ± 18.24 ng/mL
%Accuracy [3, 16]: 102.82%
Measured concentration [3, 16]: 925.37 ± 32.74 ng/mL
%Accuracy [4, 5]: 99.77%
Measured concentration [4, 5]: 2.49 ± 0.14 ng/mL
%Accuracy [4, 6]: 94.01%
Measured concentration [4, 6]: 470.07 ± 13.89 ng/mL
%Accuracy [4, 7]: 100.73%
Measured concentration [4, 7]: 906.60 ± 9.37 ng/mL
%Accuracy [4, 8]: 93.19%
Measured concentration [4, 8]: 2.33 ± 0.12 ng/mL
%Accuracy [4, 9]: 94.65%
Measured concentration [4, 9]: 473.25 ± 26.27 ng/mL
%Accuracy [4, 10]: 98.12%
Measured concentration [4, 10]: 883.06 ± 16.19 ng/mL
%Accuracy [4, 11]: 102.61%
Measured concentration [4, 11]: 2.57 ± 0.12 ng/mL
%Accuracy [4, 12]: 97.12%
Measured concentration [4, 12]: 485.59 ± 17.11 ng/mL
%Accuracy [4, 13]: 98.43%
Measured concentration [4, 13]: 885.84 ± 17.63 ng/mL
%Accuracy [4, 14]: 98.11%
Measured concentration [4, 14]: 2.45 ± 0.19 ng/mL
%Accuracy [4, 15]: 94.85%
Measured concentration [4, 15]: 474.29 ± 22.98 ng/mL
%Accuracy [4, 16]: 98.96%
Measured concentration [4, 16]: 890.60 ± 51.25 ng/mL

C=C1CC[C@@H]2[C@](C)(CO)[C@H](O)CC[C@@]2(C)[C@@H]1CCC1=CCOC1=O [AP6, 14-deoxyandrographolide]
Cmax [1]: 6.33 ± 1.18 ng/mL
AUC(0-t) [1]: 10.2 ± 2.9 ng·h/mL
Vd/F [1]: 1.93 ± 1.03 L/kg
Tmax [1]: 90 min
half-life [1]: 13.8 min
AUC of both conjugated metabolites compared to the respective parent compounds ([1]; plasma, single oral dose of extract): greater
Route of excretion [2]: primarily excreted renally
%Accuracy [3, 5]: 95.48%
Measured concentration [3, 5]: 2.39 ± 0.18 ng/mL
%Accuracy [3, 6]: 94.03%
Measured concentration [3, 6]: 470.16 ± 19.65 ng/mL
%Accuracy [3, 7]: 102.77%
Measured concentration [3, 7]: 924.91 ± 7.49 ng/mL
%Accuracy [3, 8]: 93.89%
Measured concentration [3, 8]: 2.35 ± 0.07 ng/mL
%Accuracy [3, 9]: 90.88%
Measured concentration [3, 9]: 454.38 ± 21.26 ng/mL
%Accuracy [3, 10]: 99.27%
Measured concentration [3, 10]: 893.39 ± 24.76 ng/mL
%Accuracy [3, 11]: 96.20%
Measured concentration [3, 11]: 2.41 ± 0.13 ng/mL
%Accuracy [3, 12]: 93.94%
Measured concentration [3, 12]: 469.68 ± 35.58 ng/mL
%Accuracy [3, 13]: 101.31%
Measured concentration [3, 13]: 911.80 ± 10.76 ng/mL
%Accuracy [3, 14]: 95.56%
Measured concentration [3, 14]: 2.39 ± 0.15 ng/mL
%Accuracy [3, 15]: 91.90%
Measured concentration [3, 15]: 459.52 ± 16.67 ng/mL
%Accuracy [3, 16]: 102.42%
Measured concentration [3, 16]: 921.74 ± 21.18 ng/mL
%Accuracy [4, 5]: 96.87%
Measured concentration [4, 5]: 2.42 ± 0.04 ng/mL
%Accuracy [4, 6]: 94.79%
Measured concentration [4, 6]: 473.93 ± 25.58 ng/mL
%Accuracy [4, 7]: 98.93%
Measured concentration [4, 7]: 890.41 ± 25.49 ng/mL
%Accuracy [4, 8]: 88.89%
Measured concentration [4, 8]: 2.22 ± 0.09 ng/mL
%Accuracy [4, 9]: 92.43%
Measured concentration [4, 9]: 462.16 ± 14.34 ng/mL
%Accuracy [4, 10]: 98.92%
Measured concentration [4, 10]: 890.25 ± 20.07 ng/mL
%Accuracy [4, 11]: 100.85%
Measured concentration [4, 11]: 2.52 ± 0.08 ng/mL
%Accuracy [4, 12]: 96.39%
Measured concentration [4, 12]: 481.96 ± 2.97 ng/mL
%Accuracy [4, 13]: 101.27%
Measured concentration [4, 13]: 911.38 ± 18.09 ng/mL
%Accuracy [4, 14]: 101.65%
Measured concentration [4, 14]: 2.54 ± 0.21 ng/mL
%Accuracy [4, 15]: 90.47%
Measured concentration [4, 15]: 452.37 ± 10.16 ng/mL
%Accuracy [4, 16]: 100.71%
Measured concentration [4, 16]: 906.41 ± 47.83 ng/mL
